# Source: patent US6495698B1, “Binder-free compacted forms of 1,3-dihalo-5,5-dimethylhydantoins” (Albemarle Corporation, priority 2000, dated 2002)
# Key:
# Type in all cases: physicochemical
# [1] = Particle size determination with Coulter LS Particle Size Analyzer; details: for Particle Size 10% is greater than / Particle Size 25% is greater than / Particle Size 50% is greater than / Particle Size 75% is greater than / Particle Size 90% is greater than / Particle Size Average: commercially available sample
# Method: All particle size determinations referred to in the following Examples were determined by use of a Coulter® LS Particle Size Analyzer. The analyzer was equipped with an LS 230 small volume module and a Fraunhofer PIDS (Polarization Intensity Differential Scattering) detector switched to the “On” position. The determinations were performed at room temperature with a run time of approximately 1 minute per sample. Prior to conducting the particle size determination, and whenever the sample appeared to contain particles adhering to each other, the sample was subjected for 15±1 seconds to sonication using a Sonicor Model SC-100T apparatus to ensure that the particle size measurements were on individual particles of the product, rather than temporarily agglomerated particles.
# Samples of commercially-available N,N′-dihalo-5,5-dimethylhydantoins were obtained and subjected to standard test procedures inorderto determine their average particle size using the Coulter® LS Particle Size Analyzer. Table 1 summarizes the results of these average particle size determinations, and also sets forth the data obtained in the same way on arepresentative sample of the 1,3-dibromo-5,5-dimethylhydantoin product of application Ser. No. 09/484,687. Table 2 summarizes the particle size distribution data on the commercially-available 1,3-dihalo-5,5-dimethylhydantoins. In Table 2 the following abbreviations are used: DCDMH is 1,3-dichloro-5,5-dimethylhydantoin; BCDMH is N,N′-bromochloro-5,5-dimethylhydantoin; and DBDMH is 1,3-dibromo-5,5-dimethylhydantoin.
# [2] = Tableting (pressure compaction) without binder in Sintech press; details: for compaction into tablets without binder (state of tablets released from the die): without any binder
# Description: The commerically available 1,3-dihalo-5,5-dimethylhydantoins referred to in Example 1 were subjected to tableting operations. Five-gram samples of 1,3-dibromo-5,5-dinethylhydantoin and four-gram samples of DCDMH and BCDMH were compacted without binder in a Sintech® press (MTS Systems Corporation, Edenprairie, Minn.) equipped with a punch and die fabricated from Hastelloy® C alloy. Before manually filling the die, the interior surfaces of the die were lightly dusted with micronized polypropylene wax (MICROPRO 400 wax; Micro Powders, Incorporated, Tarrytown, N.Y.). The pressure applied was 5000 psi with no dwell time, i.e., the pressure was terminated automatically immediately upon reaching 5000 psi. The resultant tablets after removal from the die were aged for 6 days at room temperature. Thereupon the tablets were subjected to crush strength testing utilizing a Sintech® 1/S compression apparatus (MTS Systems Corporation, Edenprairie, Minnesota) equipped with Testworks software, which software is installed in the 1/S compression apparatus as supplied by MTS Systems Corporation. The apparatus includes a horizontal circular-shaped load cell interfaced with a computer, a digital micrometer also interfaced with the computer, and a vertical screw-driven piston that is disposed above the load cell and adapted to apply a downward force perpendicular to the load cell. The procedure for measuring crush strength involves measuring the thickness of the tablet with the micrometer to provide a digitized input to the computer. Next the tablet is placed on its edge on the load cell with the piston in contact with the upper edge of the tablet. Then the apparatus is activated whereby the piston commences applying a progressively increasing downward diametral force to the tablet. At the same time, the load cell continuously measures the downward force being applied to the tablet, and the input of such measurements is transmitted to the computer. […]
# [3] = Crush strength testing of tablets (Sintech 1/S compression apparatus); details: binder-free tablets compacted at 5000 psi, aged 6 days at room temperature; average of three tests
# Description: The commerically available 1,3-dihalo-5,5-dimethylhydantoins referred to in Example 1 were subjected to tableting operations. Five-gram samples of 1,3-dibromo-5,5-dinethylhydantoin and four-gram samples of DCDMH and BCDMH were compacted without binder in a Sintech® press (MTS Systems Corporation, Edenprairie, Minn.) equipped with a punch and die fabricated from Hastelloy® C alloy. Before manually filling the die, the interior surfaces of the die were lightly dusted with micronized polypropylene wax (MICROPRO 400 wax; Micro Powders, Incorporated, Tarrytown, N.Y.). The pressure applied was 5000 psi with no dwell time, i.e., the pressure was terminated automatically immediately upon reaching 5000 psi. The resultant tablets after removal from the die were aged for 6 days at room temperature. Thereupon the tablets were subjected to crush strength testing utilizing a Sintech® 1/S compression apparatus (MTS Systems Corporation, Edenprairie, Minnesota) equipped with Testworks software, which software is installed in the 1/S compression apparatus as supplied by MTS Systems Corporation. […]
# As used herein, including the claims, values given for crush strength are as measured using the apparatus and procedure as described in Example 2 above. […]
# [4] = material compacted on small scale in manually filled dies
Compound,Average Particle Size ([1]; Source: Albemarle Corporation),Average Particle Size ([1]; Source: Aldrich Chemical Co.),Average Particle Size ([1]; Source: Great Lakes Chemical Corporation),"Average Particle Size ([1]; Source: the product of Application No. 09/484,687)","Compaction ([2]; without binder, 5000 psi, no dwell time, die dusted with micronized polypropylene wax, listed as 1,3-dibromo-5,5-dimethyhydantoin)",Particle Size 10% is greater than [1],Particle Size 25% is greater than [1],Particle Size 50% is greater than [1],Particle Size 75% is greater than [1],Particle Size 90% is greater than [1],Particle Size Average [1],"Average Particle Size [1, 4]",compaction into tablets without binder (state of tablets released from the die) [2],Crush strength [3]
"CC1(C)C(=O)N(Br)C(=O)N1Br [1,3-dibromo-5,5-dimethylhydantoin]",64.5 microns,162.1 microns,45.2 microns,>500 microns,could not be tableted,,,,,,,,,
"CC1(C)C(=O)N(Cl)C(=O)N1Br [BCDMH - Aldrich, N,N′-bromochloro-5,5-dimethylhydantoin]",,323.8 microns,,,,877.9 μ,409.9 μ,173.9 μ,65.39 μ,29.35 μ,323.8 μ,about 324 microns,intact and exhibited no visual surface imperfections,83.9 lb/in
"CC1(C)C(=O)N(Br)C(=O)N1Br [DBDMH - Albemarle, 1,3-dibromo-5,5-dimethylhydantoin]",,,,,,162.7 μ,90.12 μ,39.21 μ,26.85 μ,17.91 μ,64.59 μ,,,
"CC1(C)C(=O)N(Br)C(=O)N1Br [DBDMH - Aldrich, 1,3-dibromo-5,5-dimethylhydantoin]",,,,,,359.2 μ,177.6 μ,86.03 μ,47.37 μ,27.67 μ,162.1 μ,,,
"CC1(C)C(=O)N(Br)C(=O)N1Br [DBDMH - Great Lakes, 1,3-dibromo-5,5-dimethylhydantoin]",,,,,,78.76 μ,49.76 μ,34.68 μ,23.25 μ,13.90 μ,45.23 μ,,,
"CC1(C)C(=O)N(Cl)C(=O)N1Cl [DCDMH - Aldrich, 1,3-dichloro-5,5-dimethylhydantoin]",,108.1 microns,,,,195.3 μ,134.4 μ,80.07 μ,45.99 μ,27.19 μ,108.1 μ,about 108 microns,intact and exhibited no visual surface imperfections,183.6 lb/in
